Laboratory results from ChEMBL document CHEMBL3745696, “Synthesis and cytotoxic activity of novel hexahydropyrrolo[2,3-b]indole imidazolium salts” (Bioorg Med Chem Lett, 2016).

Assays:
[1] = Cytotoxicity against human HL60 cells by MTT assay; type: functional, cell-based; conditions: HL-60
[2] = Cytotoxicity against human SMMC7721 cells by MTT assay; type: functional, cell-based; conditions: SMMC-7721
A549 [3] = test: Cytotoxicity against human A549 cells by MTT assay; type: functional, cell-based
MCF7 [4] = test: Cytotoxicity against human MCF7 cells by MTT assay; type: functional, cell-based
SW480 [5] = test: Cytotoxicity against human SW480 cells by MTT assay; type: functional, cell-based
[6] = Potency index, ratio IC50 of cisplatin to IC50 of compound for cytotoxicity against human SMMC7721 cells; type: functional, SMMC-7721
A549 [7] = test: Potency index, ratio IC50 of cisplatin to IC50 of compound for cytotoxicity against human A549 cells; type: functional
SW480 [8] = test: Potency index, ratio IC50 of cisplatin to IC50 of compound for cytotoxicity against human SW480 cells; type: functional
MCF7 [9] = test: Potency index, ratio IC50 of cisplatin to IC50 of compound for cytotoxicity against human MCF7 cells; type: functional

With Cc1n(CC(=O)N2CCC3(C)c4ccccc4N(C)C23)c2ccccc2[n+]1CC(=O)c1ccc2ccccc2c1 (centres undefined) the IC50 [1] was 5.95 µM, the IC50 [2] was 7.09 µM and the IC50 (A549 [3]) was 7.64 µM. It also gave an IC50 (MCF7 [4]) of 9.45 µM and an IC50 (SW480 [5]) of 10.1 µM.

Cc1cc2c(cc1C)[n+](Cc1ccc3ccccc3c1)cn2CC(=O)N1CCC2(C)c3ccccc3N(C)C12 (centres undefined) showed an IC50 [1] of 1.35 µM, an IC50 [2] of 4.03 µM and an IC50 (A549 [3]) of 6.18 µM. For the same molecule, the IC50 (MCF7 [4]) was 1.84 µM and the IC50 (SW480 [5]) was 4.54 µM.

For COc1ccc(C(=O)C[n+]2c(C)n(CC(=O)N3CCC4(C)c5ccccc5N(C)C34)c3ccccc32)cc1 (centres undefined), the IC50 [1] was over 20 µM, the IC50 [2] was over 20 µM and the IC50 (A549 [3]) was over 20 µM. It also gave an IC50 (MCF7 [4]) of over 20 µM and an IC50 (SW480 [5]) of over 20 µM.

CN1c2ccccc2C2(C)CCN(C(=O)Cn3cnc4ccccc43)C12 (centres undefined) showed an IC50 [1] of over 20 µM, an IC50 [2] of over 20 µM and an IC50 (A549 [3]) of over 20 µM. For the same molecule, the IC50 (MCF7 [4]) was over 20 µM and the IC50 (SW480 [5]) was over 20 µM.

In the case of Cc1cc2c(cc1C)[n+](Cc1ccccc1Br)cn2CC(=O)N1CCC2(C)c3ccccc3N(C)C12 (centres undefined), the IC50 [1] is reported as 1.67 µM, the IC50 [2] is reported as 5.61 µM and the IC50 (A549 [3]) is reported as 12.7 µM. The IC50 (MCF7 [4]) was 6.28 µM and the IC50 (SW480 [5]) was 7.24 µM.

With Cc1cc2c(cc1C)[n+](CC(=O)c1ccccc1)cn2CC(=O)N1CCC2(C)c3ccccc3N(C)C12 (centres undefined) the IC50 [1] was 8.03 µM, the IC50 [2] was over 20 µM and the IC50 (A549 [3]) was over 20 µM. The IC50 (MCF7 [4]) was 13.4 µM and the IC50 (SW480 [5]) was over 20 µM.

For Cc1n(CC(=O)N2CCC3(C)c4ccccc4N(C)C23)c2ccccc2[n+]1Cc1ccc2ccccc2c1 (centres undefined), the IC50 [1] was 1.49 µM, the IC50 [2] was 4.34 µM and the IC50 (A549 [3]) was 16.7 µM. The IC50 (MCF7 [4]) was 5.09 µM and the IC50 (SW480 [5]) was 7.36 µM.

For Cc1cc2c(cc1C)[n+](Cc1ccccc1Br)cn2CC(=O)N1CCC2(C)c3ccccc3N(Cc3ccccc3)C12.[Br-] (centres undefined), the IC50 [1] was 1.27 µM, the IC50 [2] was 1.72 µM and the IC50 (A549 [3]) was 2.68 µM. For the same molecule, the IC50 (MCF7 [4]) was 1.78 µM, the IC50 (SW480 [5]) was 1.44 µM and the “Ratio IC50” value [6] was 4.7. For the same molecule, the “Ratio IC50” value (A549 [7]) was 2.6 and the “Ratio IC50” value (SW480 [8]) was 6.2.

Work on Cc1n(CC(=O)N2CCC3(C)c4ccccc4N(C)C23)c2ccccc2[n+]1Cc1ccccc1Br (centres undefined) yielded an IC50 [1] of 3.72 µM, an IC50 [2] of 10.8 µM and an IC50 (A549 [3]) of over 20 µM. It also gave an IC50 (MCF7 [4]) of 8.95 µM and an IC50 (SW480 [5]) of over 20 µM.

For Cc1cc2c(cc1C)[n+](CC(=O)c1ccc(Br)cc1)cn2CC(=O)N1CCC2(C)c3ccccc3N(C)C12 (centres undefined), the IC50 [1] was 7.31 µM, the IC50 [2] was 8.72 µM and the IC50 (A549 [3]) was over 20 µM. The IC50 (MCF7 [4]) was 8.28 µM and the IC50 (SW480 [5]) was 8.52 µM.

CC12CCN(C(=O)Cn3cnc4ccccc43)C1N(Cc1ccccc1)c1ccccc12 (centres undefined) gave an IC50 [1] of over 20 µM, an IC50 [2] of over 20 µM and an IC50 (A549 [3]) of over 20 µM. The IC50 (MCF7 [4]) was over 20 µM and the IC50 (SW480 [5]) was over 20 µM.

Work on Cc1cc2c(cc1C)[n+](CC(=O)c1ccc3ccccc3c1)cn2CC(=O)N1CCC2(C)c3ccccc3N(C)C12 (centres undefined) yielded an IC50 [1] of 1.6 µM, an IC50 [2] of 2.85 µM and an IC50 (A549 [3]) of 6.47 µM. The IC50 (MCF7 [4]) was 4.88 µM and the IC50 (SW480 [5]) was 5.01 µM.

Work on Cc1cc2ncn(CC(=O)N3CCC4(C)c5ccccc5N(Cc5ccccc5)C34)c2cc1C (centres undefined) yielded an IC50 [1] of over 20 µM, an IC50 [2] of over 20 µM and an IC50 (A549 [3]) of over 20 µM. The IC50 (MCF7 [4]) was over 20 µM and the IC50 (SW480 [5]) was over 20 µM.

Molecule Cc1n(CC(=O)N2CCC3(C)c4ccccc4N(Cc4ccccc4)C23)c2ccccc2[n+]1Cc1ccc2ccccc2c1.[Br-] (centres undefined) has an IC50 [1] of 1.38 µM, an IC50 [2] of 1.8 µM and an IC50 (A549 [3]) of 6.26 µM. For the same molecule, the IC50 (MCF7 [4]) was 1.46 µM, the IC50 (SW480 [5]) was 1.64 µM and the “Ratio IC50” value (MCF7 [9]) was 7.2.

CC12CCNC1N(Cc1ccccc1)c1ccccc12 (centres undefined) showed an IC50 [1] of over 20 µM, an IC50 [2] of over 20 µM and an IC50 (A549 [3]) of over 20 µM. The IC50 (MCF7 [4]) was over 20 µM and the IC50 (SW480 [5]) was over 20 µM.

With Cc1ccc(C[n+]2c(C)n(CC(=O)N3CCC4(C)c5ccccc5N(C)C34)c3ccccc32)cc1 (centres undefined) the IC50 [1] was 2.25 µM, the IC50 [2] was 8.03 µM and the IC50 (A549 [3]) was over 20 µM. For the same molecule, the IC50 (MCF7 [4]) was 10.8 µM and the IC50 (SW480 [5]) was over 20 µM.

In the case of Cc1n(CC(=O)N2CCC3(C)c4ccccc4N(C)C23)c2ccccc2[n+]1CC(=O)c1ccc(Br)cc1 (centres undefined), the IC50 [1] is reported as over 20 µM, the IC50 [2] is reported as over 20 µM and the IC50 (A549 [3]) is reported as over 20 µM. It also gave an IC50 (MCF7 [4]) of over 20 µM and an IC50 (SW480 [5]) of over 20 µM.

With Cc1cc2c(cc1C)[n+](Cc1ccc(Br)cc1)cn2CC(=O)N1CCC2(C)c3ccccc3N(C)C12 (centres undefined) the IC50 [1] was 1.73 µM, the IC50 [2] was 5.69 µM and the IC50 (A549 [3]) was 17.4 µM. The IC50 (MCF7 [4]) was 3.08 µM and the IC50 (SW480 [5]) was 6.9 µM.

Cc1ccc(C[n+]2cn(CC(=O)N3CCC4(C)c5ccccc5N(C)C34)c3cc(C)c(C)cc32)cc1 (centres undefined) gave an IC50 [1] of 1.52 µM, an IC50 [2] of 4.52 µM and an IC50 (A549 [3]) of 10.5 µM. For the same molecule, the IC50 (MCF7 [4]) was 5.79 µM and the IC50 (SW480 [5]) was 7.57 µM.

For Cc1nc2ccccc2n1CC(=O)N1CCC2(C)c3ccccc3N(C)C12 (centres undefined), the IC50 [1] was over 20 µM, the IC50 [2] was over 20 µM and the IC50 (A549 [3]) was over 20 µM. For the same molecule, the IC50 (MCF7 [4]) was over 20 µM and the IC50 (SW480 [5]) was over 20 µM.

In the case of Cc1nc2ccccc2n1CC(=O)N1CCC2(C)c3ccccc3N(Cc3ccccc3)C12 (centres undefined), the IC50 [1] is reported as over 20 µM, the IC50 [2] is reported as over 20 µM and the IC50 (A549 [3]) is reported as over 20 µM. For the same molecule, the IC50 (MCF7 [4]) was over 20 µM and the IC50 (SW480 [5]) was over 20 µM.

COc1ccc(C(=O)C[n+]2cn(CC(=O)N3CCC4(C)c5ccccc5N(C)C34)c3cc(C)c(C)cc32)cc1 (centres undefined) gave an IC50 [1] of 6.23 µM, an IC50 [2] of 7.49 µM and an IC50 (A549 [3]) of over 20 µM. For the same molecule, the IC50 (MCF7 [4]) was 8.15 µM and the IC50 (SW480 [5]) was 11.1 µM.

Work on CN1c2ccccc2C2(C)CCNC12 (centres undefined) yielded an IC50 [1] of over 20 µM, an IC50 [2] of over 20 µM and an IC50 (A549 [3]) of over 20 µM. The IC50 (MCF7 [4]) was over 20 µM and the IC50 (SW480 [5]) was over 20 µM.

CN1c2ccccc2C2(C)CCN(C(=O)Cn3ccnc3)C12 (centres undefined) gave an IC50 [1] of over 20 µM, an IC50 [2] of over 20 µM and an IC50 (A549 [3]) of over 20 µM. It also gave an IC50 (MCF7 [4]) of over 20 µM and an IC50 (SW480 [5]) of over 20 µM.

Work on Cc1nccn1CC(=O)N1CCC2(C)c3ccccc3N(C)C12 (centres undefined) yielded an IC50 [1] of over 20 µM, an IC50 [2] of over 20 µM and an IC50 (A549 [3]) of over 20 µM. For the same molecule, the IC50 (MCF7 [4]) was over 20 µM and the IC50 (SW480 [5]) was over 20 µM.

Cc1nccn1CC(=O)N1CCC2(C)c3ccccc3N(Cc3ccccc3)C12 (centres undefined) gave an IC50 [1] of over 20 µM, an IC50 [2] of over 20 µM and an IC50 (A549 [3]) of over 20 µM. It also gave an IC50 (MCF7 [4]) of over 20 µM and an IC50 (SW480 [5]) of over 20 µM.

For c1c[nH]cn1 [IMIDAZOLE], the IC50 [1] was over 20 µM, the IC50 [2] was over 20 µM and the IC50 (A549 [3]) was over 20 µM. For the same molecule, the IC50 (MCF7 [4]) was over 20 µM and the IC50 (SW480 [5]) was over 20 µM.
